*1 amine or outer side, *2 acyl side, *3 side chain or, on linkers, in order; H or OH if unused. Where a SMILES comes first, the peptide text is derived from it. Bridges are numbered along the chain shown (N, C = ends). [ ]: non-standard residue; d: D form. The star is where a group is joined. hPhe(3,5-F2-4-CF3) = N[C@@H](CCc1cc(F)c(C(F)(F)F)c(F)c1)C(=O)O; hPhe(3-Cl-4-CF3) = N[C@@H](CCc1ccc(C(F)(F)F)c(Cl)c1)C(=O)O; NPrPhe(4-CF3) = CCCN[C@@H](Cc1ccc(C(F)(F)F)cc1)C(=O)O; NMeGly(cPent) = CN[C@H](C(=O)O)C1CCCC1; X13 = CCC[C@](C)(N[*:1])C(=O)[*:2]; Hyp = O=C(O)[C@@H]1C[C@@H](O)CN1; NMeD = CN[C@@H](CC(=O)O)C(=O)O; NMeL = CN[C@@H](CC(C)C)C(=O)O; Morpholide = C1CN(*)CCO1; Ac5c = NC1(C(=O)O)CCCC1; Aze = O=C(O)[C@@H]1CCN1; NEtG = CCNCC(=O)O; Sar = CNCC(=O)O
Assays:
[1] = biological target: GDP-bound NRAS wild-type protein (Homo sapiens, UniProt P01111); test: Binding to NRAS by surface plasmon resonance (SPR), Single Cycle Kinetics
Chain of GDP-bound NRAS wild-type protein (P01111 whole entry): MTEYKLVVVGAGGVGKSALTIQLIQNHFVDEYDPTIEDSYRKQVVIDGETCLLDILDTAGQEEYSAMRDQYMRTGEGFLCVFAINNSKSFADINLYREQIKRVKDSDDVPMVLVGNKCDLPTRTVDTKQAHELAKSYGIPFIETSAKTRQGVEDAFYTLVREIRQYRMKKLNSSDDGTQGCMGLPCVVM

[2] = biological target: GDP-bound HRAS wild-type protein (Homo sapiens, UniProt P01112); test: Binding to HRAS by surface plasmon resonance (SPR), Single Cycle Kinetics
Chain of GDP-bound HRAS wild-type protein (P01112 whole entry): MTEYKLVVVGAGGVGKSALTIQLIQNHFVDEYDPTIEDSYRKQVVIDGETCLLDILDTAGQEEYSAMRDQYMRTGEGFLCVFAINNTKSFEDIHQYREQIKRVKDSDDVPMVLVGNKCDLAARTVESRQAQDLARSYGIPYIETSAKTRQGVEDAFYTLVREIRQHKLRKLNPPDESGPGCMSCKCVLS

[3] = KD ratio NRAS/KRAS, class symbols
[4] = KD ratio HRAS/KRAS, class symbols

SMILES: CCCOC[C@H]1C(=O)N[C@@H]([C@@H](C)CC)C(=O)N(C)CC(=O)N(C)[C@H]2C/C=C\CCN(C2=O)[C@@H](Cc2ccc(C)cc2)C(=O)N(C)CC(=O)N[C@@H](CCc2cc(F)c(C(F)(F)F)c(F)c2)C(=O)N2C[C@H](OCC)C[C@H]2C(=O)NC2(CC(C)(C)C2)C(=O)N(C)[C@@H](CC2CCC2)C(=O)N(C)[C@H](C(=O)N(C)C)CC(=O)N1C [PP2752]
- NRAS/KRAS (ratio of KD value with respect to GDP-bound NRAS wild-type protein to KD value with respect to KRAS) [1, 3]: A (a compound having 10 or more and less than 20 is denoted as A)
- HRAS/KRAS (ratio of KD value with respect to GDP-bound HRAS wild-type protein to KD value with respect to KRAS) [2, 4]: A (a compound having 10 or more and less than 20 is denoted as A)

SMILES: CCCN1C(=O)CN(C)C(=O)[C@@H]2CCN2C(=O)[C@H]([C@@H](C)CC)NC(=O)[C@H](CC(C)C)N(C)C(=O)C[C@@H](C(=O)N2CCOCC2)N(C)C(=O)[C@H](C2CCCC2)N(C)C(=O)[C@](C)(CCC)NC(=O)[C@@H]2CCCN2C(=O)[C@H](CCc2cc(F)c(C(F)(F)F)c(F)c2)NC(=O)CN(C)C(=O)[C@@H]1Cc1ccc(C(F)(F)F)cc1 [PP0775] ([NMeL]I[Aze][Sar][NPrPhe(4-CF3)][Sar][hPhe(3,5-F2-4-CF3)]P[X13][NMeGly(cPent)][NMeD]-Morpholide; lactam N-11)
- NRAS/KRAS (ratio of KD value with respect to GDP-bound NRAS wild-type protein to KD value with respect to KRAS) ([1]; KD ratio NRAS/KRAS, SPR): B (a compound having 3 or more and less than 10 is denoted as B)
- HRAS/KRAS (ratio of KD value with respect to GDP-bound HRAS wild-type protein to KD value with respect to KRAS) ([2]; KD ratio HRAS/KRAS, SPR): B (a compound having 3 or more and less than 10 is denoted as B)

SMILES: CCCN1C(=O)CN(C)C(=O)CN(CC)C(=O)[C@H]([C@@H](C)CC)NC(=O)[C@H](CC(C)C)N(C)C(=O)C[C@@H](C(=O)N2CCOCC2)NC(=O)[C@H](C2CCCC2)N(C)C(=O)C2(CCCC2)NC(=O)[C@@H]2C[C@@H](OCC)CN2C(=O)[C@H](CCc2ccc(C(F)(F)F)c(Cl)c2)NC(=O)CN(C)C(=O)[C@@H]1Cc1ccc(C(F)(F)F)cc1 [PP0335] ([NMeL]I[NEtG][Sar][NPrPhe(4-CF3)][Sar][hPhe(3-Cl-4-CF3)][Hyp](Et)[Ac5c][NMeGly(cPent)]D-Morpholide; lactam N-11)
- NRAS/KRAS (ratio of KD for GDP-bound NRAS wild-type to KD for KRAS) ([1]; KD ratio NRAS/KRAS, SPR): B (a compound having 3 or more and less than 10 is denoted as B)
- HRAS/KRAS (ratio of KD for GDP-bound HRAS wild-type to KD for KRAS) ([2]; KD ratio HRAS/KRAS, SPR): C (A compound having a KD ratio of 0.1 or more and less than 3 is denoted as C)

SMILES: CCO[C@@H]1C[C@H]2C(=O)NC3(CC(C)(C)C3)C(=O)N(C)[C@@H](C3CCCC3)C(=O)N(C)[C@H](C(=O)N3CCCC3)CC(=O)N(C)[C@H]3CCCCCc4ccc(cc4)C[C@@H](C(=O)N(C)CC(=O)N[C@@H](CCc4ccc(C(F)(F)F)c(OC)c4)C(=O)N2C1)N1CC/C=C\C[C@@H](C1=O)N(C)C(=O)CN(C)C(=O)[C@H]([C@@H](C)CC)NC3=O [PP3037, (1S,7S,11R,13S,19S,22S,26S,29S,35S,37Z)-19-cyclopentyl-11-ethoxy-7-[2-[3-methoxy-4-(trifluoromethyl)phenyl]ethyl]-3,3′,3′,18,21,25,31,34-octamethyl-29-[(1S)-1-methylpropyl]-22-(pyrrolidine-1-carbonyl)spiro[3,6,9,15,18,21,25,28,31,34,41-undecazapentacyclo[24.15.10.2^43,46.1^35,41.0^9,13]tetrapentaconta-37,43(53),44,46(52)-tetraene-16,1′-cyclobutane]-2,5,8,14,17,20,24,27,30,33,54-undecone]
- NRAS/KRAS (ratio of KD value with respect to GDP-bound NRAS wild-type protein to KD value with respect to KRAS) ([1]; KD ratio NRAS/KRAS, SPR, GDP-bound wild-type proteins): A (a compound having 10 or more and less than 20 is denoted as A)
- HRAS/KRAS (ratio of KD value with respect to GDP-bound HRAS wild-type protein to KD value with respect to KRAS) ([2]; KD ratio HRAS/KRAS, SPR, GDP-bound wild-type proteins): B (a compound having 3 or more and less than 10 is denoted as B)

SMILES: CCO[C@@H]1C[C@H]2C(=O)NC3(CCC3)C(=O)N(C)[C@@H]([C@@H](C)CC)C(=O)N(C)[C@H](C(=O)N(C)C)CC(=O)N(C)[C@@H](CC)C(=O)N[C@@H]([C@@H](C)CC)C(=O)N(C)CC(=O)N(C)[C@H]3C/C=C\CCN(C3=O)[C@@H](Cc3ccc(C(F)(F)F)cc3)C(=O)N(C)CC(=O)N[C@@H](CCc3cc(F)c(C(F)(F)F)c(F)c3)C(=O)N2C1 [PP1087]
- NRAS/KRAS (ratio of KD value with respect to NRAS to KD value with respect to KRAS) ([1]; KD ratio, GDP-bound NRAS wild-type vs GDP-bound KRAS wild-type, SPR): A (a compound having 10 or more and less than 20 is denoted as A)
- HRAS/KRAS (ratio of KD value with respect to HRAS to KD value with respect to KRAS) ([2]; KD ratio, GDP-bound HRAS wild-type vs GDP-bound KRAS wild-type, SPR): A (a compound having 10 or more and less than 20 is denoted as A)

SMILES: CCC[C@H]1C(=O)N[C@@H]([C@@H](C)CC)C(=O)N(C)CC(=O)N(C)[C@H]2C/C=C\CCN(C2=O)[C@@H](Cc2ccc(C(F)(F)F)cc2)C(=O)N(C)CC(=O)N[C@@H](CCc2ccc(Cl)c(Cl)c2)C(=O)N2C[C@H](OCC)C[C@H]2C(=O)NC2(CC(C)(C)C2)C(=O)N(C)[C@@H](CC2CCC2)C(=O)N(C)[C@H](C(=O)N(C)C)CC(=O)N1C [PP2766]
- NRAS/KRAS (ratio of KD value with respect to GDP-bound NRAS wild-type protein to KD value with respect to KRAS) [1, 3]: A (a compound having 10 or more and less than 20 is denoted as A)
- HRAS/KRAS (ratio of KD value with respect to GDP-bound HRAS wild-type protein to KD value with respect to KRAS) [2, 4]: A (a compound having 10 or more and less than 20 is denoted as A)

SMILES: CCC[C@H]1C(=O)N[C@@H]([C@@H](C)CC)C(=O)N(C)CC(=O)N(C)[C@H]2C/C=C\CCN(C2=O)[C@@H](Cc2ccc(C(F)(F)F)cc2)C(=O)N(C)CC(=O)N[C@@H](CCc2ccc(CC)c(Cl)c2)C(=O)N2C[C@H](OCC)C[C@H]2C(=O)NC2(CC(C)(C)C2)C(=O)N(C)[C@@H](C2CCCC2)C(=O)N(C)[C@H](C(=O)N(C)C)CC(=O)N1C [PP2848]
- NRAS/KRAS (ratio of KD value with respect to GDP-bound NRAS wild-type protein to KD value with respect to KRAS) [1, 3]: A (a compound having 10 or more and less than 20 is denoted as A)
- HRAS/KRAS (ratio of KD value with respect to GDP-bound HRAS wild-type protein to KD value with respect to KRAS) [2, 4]: A (a compound having 10 or more and less than 20 is denoted as A)

From patent publication US20250230193A1, “CYCLIC COMPOUND HAVING SELECTIVE KRAS INHIBITORY EFFECT ON HRAS AND NRAS” (CHUGAI SEIYAKU KABUSHIKI KAISHA, priority 2022, published 2025)
